Results on 32 molecules are retold here after patent US8791102B2, “Acetanilide sphingosine-1-phosphate receptor antagonists” (Exelixis, Inc., priority 2008, dated 2014).

The experiment has as its target T1, human S1P1 receptors (Homo sapiens, UniProt P21453).
T1 construct: host or cells: HEK293
The experiment can be described thus: S1P1R antagonist assay (fluorescent membrane potential dye, cAMP readout). Type of experiment: cell-based. The note with it: HEK293 cells expressing human S1P1 receptors and CNG channel; 500 nM NECA; S1P1R agonist 10 nM; 90 minutes; read-out: EC50 or IC50 value.

Structures are written as SMILES.

T1 sequence (P21453 whole entry): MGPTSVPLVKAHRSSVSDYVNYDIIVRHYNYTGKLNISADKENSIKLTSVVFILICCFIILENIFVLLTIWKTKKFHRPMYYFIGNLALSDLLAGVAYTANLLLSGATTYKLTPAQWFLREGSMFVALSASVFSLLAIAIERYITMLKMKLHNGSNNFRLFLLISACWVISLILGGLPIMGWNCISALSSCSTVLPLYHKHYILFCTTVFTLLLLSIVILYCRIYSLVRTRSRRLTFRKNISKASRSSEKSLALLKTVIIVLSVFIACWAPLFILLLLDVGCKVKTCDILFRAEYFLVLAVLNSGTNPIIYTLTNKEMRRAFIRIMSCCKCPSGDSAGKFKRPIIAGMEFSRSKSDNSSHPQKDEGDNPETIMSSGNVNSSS

For orientation: IC50 means the concentration at which inhibition is half-maximal. `O=C(CN1CCSC1)N[C@@H](COCc1ccccc1)C(=O)Nc1ccc(Oc2ccc(F)cc2)cc1` [Compound 235, (S)-3-(benzyloxy)-N-(4-(4-fluorophenoxy)phenyl)-2-(2-(thiazolidin-3-yl)acetamido)propanamide]: the IC50 fell in the range of 300 to 1000 nM.

Take `O=C(Nc1ccc(Oc2ccc(F)cc2)cc1)[C@@H]1C[C@@H](Cc2ccc(F)cc2F)CN1C(=O)Cn1cncn1` [Compound 53, (2S,4R)-1-(2-(1H-1,2,4-triazol-1-yl)acetyl)-4-(2,4-difluorobenzyl)-N-(4-(4-fluorophenoxy)phenyl)pyrrolidine-2-carboxamide]: the IC50 was no more than 300 nM.

Take `COc1ccc([C@@H]2C[C@@H](C(=O)Nc3ccc(Oc4ccc(F)cc4)cc3)N(C(=O)Cn3cncn3)C2)cc1` [Compound 62, (2S,4S)-1-(2-(1H-1,2,4-triazol-1-yl)acetyl)-N-(4-(4-fluorophenoxy)phenyl)-4-(4-methoxyphenyl)pyrrolidine-2-carboxamide]: the IC50 was no more than 300 nM.

For `O=C(Cc1c[nH]cn1)N[C@@H](COCc1ccc(F)cc1)C(=O)Nc1ccc(Oc2ccc(Br)cc2)cc1` [Compound 168, (S)-2-(2-(1H-imidazol-5-yl)acetamido)-N-(4-(4-bromophenoxy)phenyl)-3-(4-fluorobenzyloxy)propanamide], the IC50 was no more than 300 nM.

Turning to `COC(=O)c1ccc(C(=O)NC(COCc2ccccc2)C(=O)Nc2ccc(Oc3ccccc3)cc2)cc1` (centres unmarked) [Compound 397, methyl 4-{[(2-oxo-1-{[(phenylmethyl)oxy]methyl}-2-{[4-(phenyloxy)phenyl]amino}ethyl)amino]carbonyl}benzoate], the IC50 is 300 to 1000 nM.

As for `O=C(Cn1nccn1)N[C@@H](COCc1ccccc1)C(=O)Nc1ccc(Oc2ccc(F)cc2)cc1` [Compound 138, (S)-2-(2-(2H-1,2,3-triazol-2-yl)acetamido)-3-(benzyloxy)-N-(4-(4-fluorophenoxy)phenyl)propanamide], the IC50 was no more than 300 nM.

For the molecule `CC(C)(C(=O)N[C@@H](COCc1ccc(F)cc1)C(=O)Nc1ccc(Oc2ccc(F)cc2)cc1)c1c[nH]cn1` [Compound 161, (S)-2-(2-(1H-imidazol-4-yl)-2-methylpropanamido)-3-(4-fluorobenzyloxy)-N-(4-(4-fluorophenoxy)phenyl)propanamide], the IC50 is no more than 300 nM.

Regarding `Cc1cc(F)ccc1C[C@@H]1C[C@@H](C(=O)Nc2ccc(Oc3ccc(F)cc3)cc2)N(C(=O)Cn2nccn2)C1` [Compound 7, (2S,4R)-1-(2-(2H-1,2,3-triazol-2-yl)acetyl)-4-(4-fluoro-2-methylbenzyl)-N-(4-(4-fluorophenoxy)phenyl)pyrrolidine-2-carboxamide], the IC50 was no more than 300 nM.

Turning to `CC(=O)N1CCC[C@H]1C(=O)N1C[C@H](Cc2ccccc2)C[C@H]1C(=O)Nc1ccc(Oc2ccc(F)cc2)cc1` [Compound 93, (2S,4R)-1-((S)-1-acetylpyrrolidine-2-carbonyl)-4-benzyl-N-(4-(4-fluorophenoxy)phenyl)pyrrolidine-2-carboxamide], the IC50 is no more than 300 nM.

`CCC(C)CC(=O)NC(COCc1ccccc1)C(=O)Nc1ccc(Oc2ccccc2)cc1` (centres unmarked) [Compound 385, 3-methyl-N-(2-oxo-1-{[(phenylmethyl)oxy]methyl}-2-{[4-(phenyloxy)phenyl]amino}ethyl)pentanamide]: the IC50 was greater than 1000 nM.

Regarding `Cc1ccc(C[C@@H]2C[C@@H](C(=O)Nc3ccc(Oc4ccc(F)cc4)cc3)N(C(=O)Cn3ccnn3)C2)cc1` [Compound 3], the IC50 is no more than 300 nM.

Turning to `CC(C)CC(=O)N[C@@H](COCc1ccccc1)C(=O)Nc1ccc(Oc2ccc(F)cc2)cc1` [Compound 233, (S)—N-(3-(benzyloxy)-1-(4-(4-fluorophenoxy)phenylamino)-1-oxopropan-2-yl)-3-methylbutanamide], the IC50 lay within 300 to 1000 nM.

On to `O=C(Cc1cnc[nH]1)N[C@@H](CCc1ccccc1)C(=O)Nc1ccc(Oc2ccc(Cl)cc2)cc1` [Compound 157, (S)-2-(2-(1H-imidazol-5-yl)acetamido)-N-(4-(4-chlorophenoxy)phenyl)-4-phenylbutanamide], for which the IC50 was no more than 300 nM.

Take `CO[C@H](C(=O)NC(COCc1ccccc1)C(=O)Nc1ccc(Oc2ccccc2)cc1)c1ccccc1` (stereo partly drawn) [Compound 381, N-(2-oxo-1-{[(phenylmethyl)oxy]methyl}-2-{[4-(phenyloxy)phenyl]amino}ethyl)-2S-methoxy-2-phenylacetamide]: the IC50 is greater than 1000 nM.

In the case of `CC(=O)c1ccc(OCC(=O)NC(COCc2ccccc2)C(=O)Nc2ccc(Oc3ccccc3)cc2)cc1` (centres unmarked) [Compound 319, N-(2-oxo-1-{[(phenylmethyl)oxy]methyl}-2-{[4-(phenyloxy)phenyl]amino}ethyl)-4-acetylphenoxyacetamide], the IC50 is greater than 1000 nM.

In the case of `O=C(CN1CCc2ccccc2C1)N[C@@H](COCc1ccccc1)C(=O)Nc1ccc(Oc2ccc(F)cc2)cc1` [Compound 221, (S)-3-(benzyloxy)-2-(2-(3,4-dihydroisoquinolin-2(1H)-yl)acetamido)-N-(4-(4-fluorophenoxy)phenyl)propanamide], the half-maximal inhibitory concentration (IC50) lay in the range of 300 to 1000 nM.

In the case of `Cc1cc(F)ccc1Oc1ccc(NC(=O)[C@@H]2C[C@@H](Cc3ccc(F)cc3)CN2C(=O)Cn2cncn2)cc1` [Compound 74, (2S,4R)-1-(2-(1H-1,2,4-triazol-1-yl)acetyl)-N-(4-(4-fluoro-2-methylphenoxy)phenyl)-4-(4-fluorobenzyl)pyrrolidine-2-carboxamide], the IC50 was no more than 300 nM.

For `CSCCC(=O)N1C[C@H](Cc2ccccc2)C[C@H]1C(=O)Nc1ccc(Oc2ccc(F)cc2)cc1` [Compound 85, (2S,4R)-4-benzyl-N-(4-(4-fluorophenoxy)phenyl)-1-(3-(methylthio)propanoyl)pyrrolidine-2-carboxamide], the IC50 was no more than 300 nM.

Consider `COc1ccc(N2CCN(CC(=O)N[C@@H](COCc3ccccc3)C(=O)Nc3ccc(Oc4ccc(F)cc4)cc3)CC2)cc1` [Compound 224, (S)-3-(benzyloxy)-N-(4-(4-fluorophenoxy)phenyl)-2-(2-(4-(4-methoxyphenyl)piperazin-1-yl)acetamido)propanamide], for which the IC50 fell in the range of 300 to 1000 nM.

For `O=C(COc1ccccc1)NC(COCc1ccccc1)C(=O)Nc1ccc(Oc2ccccc2)cc1` (centres unmarked) [Compound 289, N-(2-oxo-1-{[(phenylmethyl)oxy]methyl}-2-{[4-(phenyloxy)phenyl]amino}ethyl)phenoxyacetamide], the IC50 was greater than 1000 nM.

Take `COCCC(=O)N1C[C@H](Cc2ccccc2)C[C@H]1C(=O)Nc1ccc(Oc2ccc(F)cc2)cc1` [Compound 90, (2S,4R)-4-benzyl-N-(4-(4-fluorophenoxy)phenyl)-1-(3-methoxypropanoyl)pyrrolidine-2-carboxamide]: the IC50 is no more than 300 nM.

For `CCOCCC(=O)NC(COCc1ccccc1)C(=O)Nc1ccc(Oc2ccccc2)cc1` (centres unmarked) [Compound 376, N-(2-oxo-1-{[(phenylmethyl)oxy]methyl}-2-{[4-(phenyloxy)phenyl]amino}ethyl)-3-ethoxypropanamide], the IC50 was greater than 1000 nM.

With `O=C(Nc1ccc(Oc2ccc(F)cc2)cc1)[C@@H]1C[C@@H](Cc2ccccc2)CN1C(=O)Cc1cccs1` [Compound 117, (2S,4R)-4-benzyl-N-(4-(4-fluorophenoxy)phenyl)-1-(2-(thien-2-yl)acetyl)pyrrolidine-2-carboxamide], the IC50 is no more than 300 nM.

Turning to `O=C(NC(COCc1ccccc1)C(=O)Nc1ccc(Oc2ccccc2)cc1)c1cnccn1` (centres unmarked) [Compound 351, N-(2-oxo-1-{[(phenylmethyl)oxy]methyl}-2-{[4-(phenyloxy)phenyl]amino}ethyl)pyrazine-2-carboxamide], the IC50 was greater than 1000 nM.

On to `COCCOCC(=O)N1C[C@H](Cc2ccccc2)C[C@H]1C(=O)Nc1ccc(Oc2ccc(F)cc2)cc1` [Compound 88, (2S,4R)-4-benzyl-N-(4-(4-fluorophenoxy)phenyl)-1-(2-(2-methoxyethoxy)acetyl)pyrrolidine-2-carboxamide], for which the IC50 was no more than 300 nM.

As to `CN(C(=O)Cc1c[nH]cn1)[C@@H](COCc1ccccc1)C(=O)Nc1ccc(Oc2ccccc2)cc1` [Compound 203, (S)-2-(2-(1H-imidazol-4-yl)-N-methylacetamido)-3-(benzyloxy)-N-(4-phenoxyphenyl)propanamide], the IC50 was no more than 300 nM.

For `O=C(Nc1ccc(Oc2ccc(F)cc2)cc1)[C@@H]1C[C@@H](Cc2ccc(Cl)s2)CN1C(=O)Cn1nccn1` [Compound 66, (2S,4S)-1-(2-(2H-1,2,3-triazol-2-yl)acetyl)-4-((5-chlorothien-2-yl)methyl)-N-(4-(4-fluorophenoxy)phenyl)pyrrolidine-2-carboxamide], the IC50 was no more than 300 nM.

As for `Cc1[nH]c2ccccc2c1CC(=O)N1C[C@H](Cc2ccccc2)C[C@H]1C(=O)Nc1ccc(Oc2ccc(F)cc2)cc1` [Compound 37, (2S,4R)-4-benzyl-N-(4-(4-fluorophenoxy)phenyl)-1-(2-(2-methyl-1H-indol-3-yl)acetyl)pyrrolidine-2-carboxamide], the IC50 is no more than 300 nM.

As for `O=C(Nc1ccc(Oc2ccc(F)cc2)cc1)[C@@H]1C[C@@H](NCc2ccccc2)CN1C(=O)Cc1cnc[nH]1` [Compound 173, (2S,4R)-1-(2-(1H-imidazol-5-yl)acetyl)-4-(benzylamino)-N-(4-(4-fluorophenoxy)phenyl)pyrrolidine-2-carboxamide], the IC50 was no more than 300 nM.

With `Cc1cc(CC(=O)N2C[C@H](Cc3ccccc3)C[C@H]2C(=O)Nc2ccc(Oc3ccc(F)cc3)cc2)on1` [Compound 32, (2S,4R)-4-benzyl-N-(4-(4-fluorophenoxy)phenyl)-1-(2-(3-methylisoxazol-5-yl)acetyl)pyrrolidine-2-carboxamide], the IC50 was no more than 300 nM.

As for `C=CCCC(=O)NC(COCc1ccccc1)C(=O)Nc1ccc(Oc2ccccc2)cc1` (centres unmarked) [Compound 298, N-(2-oxo-1-{[(phenylmethyl)oxy]methyl}-2-{[4-(phenyloxy)phenyl]amino}ethyl)pent-4-enamide], the half-inhibitory concentration (IC50) was greater than 1000 nM.

Turning to `COCCN1CCN(CC(=O)N2C[C@H](Cc3ccccc3)C[C@H]2C(=O)Nc2ccc(Oc3ccc(F)cc3)cc2)CC1` [Compound 100, (2S,4R)-4-benzyl-N-(4-(4-fluorophenoxy)phenyl)-1-(2-(4-(2-methoxyethyl)piperazin-1-yl)acetyl)pyrrolidine-2-carboxamide], the IC50 was no more than 300 nM.
